System: 991263-137-R1-J2-PDC complex spheroid viability
Assay: Anticancer human tumor 991263-137-R1-J2-PDC patient-derived colon adenocarcinoma cell line growth inhibition [POLQ]
Details: for IC50: curve of first compound; for viability, T/C: stronger effect = lower value
Description: Multicellular complex tumor spheroid response to Polymerase (POL) inhibitors (novobiocin, ART-558, RP6685) in combination with a variety of drugs and investigational agents in selected tumor cell lines
The POL inhibitors (novobiocin, ART-558, and RP6685) were evaluated both individually and in combination with standard of care and investigational anticancer small molecules within a complex spheroid model of solid tumors. . Complex spheroids include a stromal component modeled by human endothelial cells (HUVEC) and fibroblasts modeled by human mesenchymal stem cells (MSCs). The concentration ranges selected for each drug and investigational agent were based upon clinically achievable concentrations if the clinical Cmax of the agent was known.
Compounds. The drugs and investigational agents: novobiocin (NSC847541), ART-558 (NSC835418), RP-6685 (NSC848927), peposertib (NSC802822), ceralasertib (NSC780249), elimusertib (NSC800525), camonsertib (NSC841442), AZD-1390 (NSC803789), olaparib (NSC753686), talazoparib (NSC767125), rucaparib (NSC756644), sotorasib (NSC818433), MRTX-1133 (NSC836407), SN-38 (NSC673596), topotecan (NSC609699), epotoside (NSC141540), doxorubicin (NSC123127), gemcitabine (NSC613327), 5-fluorouracil (NSC19893), paclitaxel (NSC125973), vemurafenib (NSC761431), MSA-2 (NSC828583), SN-011 (NSC837082), adavosertib (NSC754352), prexasertib (NSC758257), carboplatin (NSC241240) and oxaliplatin (NSC266046), were obtained from the National Cancer Institute (NCI) Developmental Therapeutics Program Chemical Repository (21). The FDA-approved anticancer drug set is available from the Developmental Therapeutics Program at https://dtp.cancer.gov/organization/dscb/obtaining/. […] The stock solutions were prepared in dimethyl sulfoxide (DMSO, Sigma-Aldrich, St. Louis, MO, cat. D2650), except for the platinum compounds which were prepared in saline (Quality Biological, Gaithersburg, MD, cat. 114-055-101), at 800-fold the tested concentration and stored at -70 degrees C prior to their use. All drugs and investigational agents were tested over a range starting from a high concentration at or near the clinical Cmax and decreasing in half-log increments. If the clinical Cmax for an agent had not been determined, the highest concentration tested was 10 microM, except for SN-38, which was tested at a high concentration of 1 microM.
Cell Culture. All cells were maintained in an incubator at 37 degrees C and 5% CO2 with 95% humidity. The PDC lines were cultured according to standard operating procedures established by the NCI PDMR (https://pdmr.cancer.gov). Table 3 of the manuscript, lists the cell lines along with the number of the three cell types plated to form the mct-spheroids and media for tumor cell growth. After thawing, all PDC lines, except 997537-175-T-J1-PDC and 415267-285-R-J2-PDC, were cultured in Matrigel-coated flasks prepared with a working solution of 1X Ham's F-12 nutrient mix, without supplementation (Thermo Fisher Scientific, cat. 11765054), 100 U/mL penicillin-streptomycin (Thermo Fisher Scientific, cat. 15140122), and 2.5% Matrigel (Corning Inc., Corning, NY, cat. 354248) for the first three passages. The two PDC lines 997537-175-T-J1-PDC and 415267-285-R-J2-PDC were cultured on uncoated flasks. The 857933-349-R-J2-PDC line was cultured in 6C/Colon 1B media containing advanced DMEM/F-12 (Thermo Fisher Scientific, cat. 12634028), 10 mM HEPES (Thermo Fisher Scientific, cat. 15630080), 1X GlutaMAX supplement (Thermo Fisher Scientific, cat. 35050061), 0.1 mg/mL primocin (InvivoGen, San Diego, CA, cat. ant-pm-2), 10% defined fetal bovine serum, heat inactivated (HyClone Laboratories Inc., Logan, UT, cat. SH30070.03HI), 50% L-WRN conditioned media (ATCC, cat. CRL-3276), 1.25 mM N-Acetyl-L-cysteine (Sigma-Aldrich, cat. A9165), 10 mM nicotinamide (Sigma-Aldrich, cat. N0636), 1X B-27 supplement (Thermo Fisher Scientific, cat. 17504044), 1X N-2 supplement (Thermo Fisher Scientific, cat. […]

[1] = second compound 0.0316 µM, first compound 0.0316 µM
[2] = second compound 0.0316 µM, first compound 0.1 µM
[3] = second compound 0.0316 µM, first compound 0.316 µM
[4] = second compound 0.0316 µM, first compound 1 µM
[5] = second compound 0.0316 µM, first compound 3.16 µM
[6] = second compound 0.0316 µM, first compound 10 µM
[7] = second compound 0.1 µM, first compound 0.0316 µM
[8] = second compound 0.1 µM, first compound 0.1 µM
[9] = second compound 0.1 µM, first compound 0.316 µM
[10] = second compound 0.1 µM, first compound 1 µM
[11] = second compound 0.1 µM, first compound 3.16 µM
[12] = second compound 0.1 µM, first compound 10 µM
[13] = second compound 0.316 µM, first compound 0.0316 µM
[14] = second compound 0.316 µM, first compound 0.1 µM
[15] = second compound 0.316 µM, first compound 0.316 µM
[16] = second compound 0.316 µM, first compound 1 µM
[17] = second compound 0.316 µM, first compound 3.16 µM
[18] = second compound 0.316 µM, first compound 10 µM
[19] = second compound 1 µM, first compound 0.0316 µM
[20] = second compound 1 µM, first compound 0.1 µM
[21] = second compound 1 µM, first compound 0.316 µM
[22] = second compound 1 µM, first compound 1 µM
[23] = second compound 1 µM, first compound 3.16 µM
[24] = second compound 1 µM, first compound 10 µM
[25] = second compound 3.16 µM, first compound 0.0316 µM
[26] = second compound 3.16 µM, first compound 0.1 µM
[27] = second compound 3.16 µM, first compound 0.316 µM
[28] = second compound 3.16 µM, first compound 1 µM
[29] = second compound 3.16 µM, first compound 3.16 µM
[30] = second compound 3.16 µM, first compound 10 µM
[31] = second compound 10 µM, first compound 0.0316 µM
[32] = second compound 10 µM, first compound 0.1 µM
[33] = second compound 10 µM, first compound 0.316 µM
[34] = second compound 10 µM, first compound 1 µM
[35] = second compound 10 µM, first compound 3.16 µM
[36] = second compound 10 µM, first compound 10 µM
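Note: spheroids exposed to compounds for 7 days before readout.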
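Throughout, for viability, T/C: 100% = DMSO vehicle control viability.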

## COc1cccc2c1C(=O)c1c(O)c3c(c(O)c1C2=O)CC(O)(C(=O)CO)CC3OC1CC(N)C(O)C(C)O1 (centres undefined) + COC1C(OC(N)=O)C(O)C(Oc2ccc3c(O)c(NC(=O)c4ccc(O)c(CC=C(C)C)c4)c(=O)oc3c2C)OC1(C)C
Second compound 0.0316 µM
  IC50: 1540 nM
Second compound 0.1 µM
  IC50: 1210 nM
Second compound 0.316 µM
  IC50: 1180 nM
Second compound 1 µM
  IC50: 1130 nM
Second compound 3.16 µM
  IC50: 1600 nM
Second compound 10 µM
  IC50: 1030 nM
[1]
  viability, T/C: 116%
[2]
  viability, T/C: 101%
[3]
  viability, T/C: 93.3%
[4]
  viability, T/C: 55.7%
[5]
  viability, T/C: 38.1%
[6]
  viability, T/C: 31.1%
[7]
  viability, T/C: 104%
[8]
  viability, T/C: 115%
[9]
  viability, T/C: 92.5%
[10]
  viability, T/C: 51.9%
[11]
  viability, T/C: 45.1%
[12]
  viability, T/C: 34.9%
[13]
  viability, T/C: 107%
[14]
  viability, T/C: 116%
[15]
  viability, T/C: 76%
[16]
  viability, T/C: 55.4%
[17]
  viability, T/C: 43.1%
[18]
  viability, T/C: 33.1%
[19]
  viability, T/C: 101%
[20]
  viability, T/C: 120%
[21]
  viability, T/C: 93.1%
[22]
  viability, T/C: 51.5%
[23]
  viability, T/C: 39.6%
[24]
  viability, T/C: 27.4%
[25]
  viability, T/C: 109%
[26]
  viability, T/C: 109%
[27]
  viability, T/C: 92.2%
[28]
  viability, T/C: 56.6%
[29]
  viability, T/C: 41.9%
[30]
  viability, T/C: 31.8%
[31]
  viability, T/C: 88.1%
[32]
  viability, T/C: 106%
[33]
  viability, T/C: 102%
[34]
  viability, T/C: 50.1%
[35]
  viability, T/C: 56.2%
[36]
  viability, T/C: 33.9%

## O=c1[nH]cc(F)c(=O)[nH]1 + COC1C(OC(N)=O)C(O)C(Oc2ccc3c(O)c(NC(=O)c4ccc(O)c(CC=C(C)C)c4)c(=O)oc3c2C)OC1(C)C
Second compound 0.0316 µM
  IC50: > 10000 nM
Second compound 0.1 µM
  IC50: > 10000 nM
Second compound 0.316 µM
  IC50: > 10000 nM
Second compound 1 µM
  IC50: > 10000 nM
Second compound 3.16 µM
  IC50: > 10000 nM
Second compound 10 µM
  IC50: > 10000 nM
[1]
  viability, T/C: 94%
[2]
  viability, T/C: 101%
[3]
  viability, T/C: 91%
[4]
  viability, T/C: 94%
[5]
  viability, T/C: 87%
[6]
  viability, T/C: 79.3%
[7]
  viability, T/C: 103%
[8]
  viability, T/C: 104%
[9]
  viability, T/C: 108%
[10]
  viability, T/C: 82.1%
[11]
  viability, T/C: 95.1%
[12]
  viability, T/C: 62.5%
[13]
  viability, T/C: 87.4%
[14]
  viability, T/C: 118%
[15]
  viability, T/C: 76.6%
[16]
  viability, T/C: 92.6%
[17]
  viability, T/C: 88.1%
[18]
  viability, T/C: 84.4%
[19]
  viability, T/C: 99%
[20]
  viability, T/C: 97.8%
[21]
  viability, T/C: 101%
[22]
  viability, T/C: 82.6%
[23]
  viability, T/C: 77.3%
[24]
  viability, T/C: 69.4%
[25]
  viability, T/C: 65%
[26]
  viability, T/C: 86.3%
[27]
  viability, T/C: 97.9%
[28]
  viability, T/C: 92.3%
[29]
  viability, T/C: 82.3%
[30]
  viability, T/C: 74.9%
[31]
  viability, T/C: 90.6%
[32]
  viability, T/C: 107%
[33]
  viability, T/C: 87.3%
[34]
  viability, T/C: 83.7%
[35]
  viability, T/C: 90.3%
[36]
  viability, T/C: 78.3%
